{"source": "ChEMBL document CHEMBL5352506", "about": "“The Zinc-Binding Group Effect: Lessons from Non-Hydroxamic Acid Vorinostat Analogs” (J Med Chem, 2023)", "key": {"Histone deacetylase": {"molecular_target": "Histone deacetylase", "assay_type": "cell-based, Homo sapiens", "details": "hela"}, "Histone deacetylase 8": {"molecular_target": "T1, Histone deacetylase 8 (Homo sapiens, UniProt Q9BY41)", "T1 sequence (Q9BY41 whole entry)": "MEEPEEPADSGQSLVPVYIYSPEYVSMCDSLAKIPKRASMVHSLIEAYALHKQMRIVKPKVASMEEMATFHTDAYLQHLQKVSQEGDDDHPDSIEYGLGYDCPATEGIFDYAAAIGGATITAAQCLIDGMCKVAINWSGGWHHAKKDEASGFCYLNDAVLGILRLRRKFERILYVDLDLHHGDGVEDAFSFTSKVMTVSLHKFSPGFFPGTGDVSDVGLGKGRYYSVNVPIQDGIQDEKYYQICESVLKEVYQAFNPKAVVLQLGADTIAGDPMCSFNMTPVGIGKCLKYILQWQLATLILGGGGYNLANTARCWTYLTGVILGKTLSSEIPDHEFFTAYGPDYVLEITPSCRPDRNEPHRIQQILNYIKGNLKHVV", "assay": "Inhibition of human recombinant HDAC8"}, "A2780": {"tested_on": "A2780", "assay": "Antiproliferative activity against human A2780 cells assessed as cell growth inhibition", "assay_type": "functional, cell-based"}, "Histone deacetylase 1": {"molecular_target": "Histone deacetylase 1 (Homo sapiens, UniProt Q13547)", "sequence (Q13547 whole entry)": "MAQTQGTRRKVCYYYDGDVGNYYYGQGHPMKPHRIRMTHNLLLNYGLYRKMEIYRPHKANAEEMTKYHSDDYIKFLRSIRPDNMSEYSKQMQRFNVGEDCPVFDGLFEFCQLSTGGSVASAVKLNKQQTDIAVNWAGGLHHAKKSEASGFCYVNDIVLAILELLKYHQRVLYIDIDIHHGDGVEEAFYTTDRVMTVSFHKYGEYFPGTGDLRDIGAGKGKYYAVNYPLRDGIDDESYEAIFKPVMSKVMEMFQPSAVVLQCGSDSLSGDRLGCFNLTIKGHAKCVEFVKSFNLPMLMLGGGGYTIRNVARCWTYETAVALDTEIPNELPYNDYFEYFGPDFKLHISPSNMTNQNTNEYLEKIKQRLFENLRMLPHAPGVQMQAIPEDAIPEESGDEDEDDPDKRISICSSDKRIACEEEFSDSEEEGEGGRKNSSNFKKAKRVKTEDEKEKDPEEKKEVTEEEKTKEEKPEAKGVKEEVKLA", "assay": "Inhibition of human full-length recombinant HDAC1 incubated for 2 hrs by fluorescence based analysis"}, "[1]": {"molecular_target": "T2, Protein deacetylase HDAC6 (Homo sapiens, UniProt Q9UBN7)", "T2 sequence (Q9UBN7 whole entry)": "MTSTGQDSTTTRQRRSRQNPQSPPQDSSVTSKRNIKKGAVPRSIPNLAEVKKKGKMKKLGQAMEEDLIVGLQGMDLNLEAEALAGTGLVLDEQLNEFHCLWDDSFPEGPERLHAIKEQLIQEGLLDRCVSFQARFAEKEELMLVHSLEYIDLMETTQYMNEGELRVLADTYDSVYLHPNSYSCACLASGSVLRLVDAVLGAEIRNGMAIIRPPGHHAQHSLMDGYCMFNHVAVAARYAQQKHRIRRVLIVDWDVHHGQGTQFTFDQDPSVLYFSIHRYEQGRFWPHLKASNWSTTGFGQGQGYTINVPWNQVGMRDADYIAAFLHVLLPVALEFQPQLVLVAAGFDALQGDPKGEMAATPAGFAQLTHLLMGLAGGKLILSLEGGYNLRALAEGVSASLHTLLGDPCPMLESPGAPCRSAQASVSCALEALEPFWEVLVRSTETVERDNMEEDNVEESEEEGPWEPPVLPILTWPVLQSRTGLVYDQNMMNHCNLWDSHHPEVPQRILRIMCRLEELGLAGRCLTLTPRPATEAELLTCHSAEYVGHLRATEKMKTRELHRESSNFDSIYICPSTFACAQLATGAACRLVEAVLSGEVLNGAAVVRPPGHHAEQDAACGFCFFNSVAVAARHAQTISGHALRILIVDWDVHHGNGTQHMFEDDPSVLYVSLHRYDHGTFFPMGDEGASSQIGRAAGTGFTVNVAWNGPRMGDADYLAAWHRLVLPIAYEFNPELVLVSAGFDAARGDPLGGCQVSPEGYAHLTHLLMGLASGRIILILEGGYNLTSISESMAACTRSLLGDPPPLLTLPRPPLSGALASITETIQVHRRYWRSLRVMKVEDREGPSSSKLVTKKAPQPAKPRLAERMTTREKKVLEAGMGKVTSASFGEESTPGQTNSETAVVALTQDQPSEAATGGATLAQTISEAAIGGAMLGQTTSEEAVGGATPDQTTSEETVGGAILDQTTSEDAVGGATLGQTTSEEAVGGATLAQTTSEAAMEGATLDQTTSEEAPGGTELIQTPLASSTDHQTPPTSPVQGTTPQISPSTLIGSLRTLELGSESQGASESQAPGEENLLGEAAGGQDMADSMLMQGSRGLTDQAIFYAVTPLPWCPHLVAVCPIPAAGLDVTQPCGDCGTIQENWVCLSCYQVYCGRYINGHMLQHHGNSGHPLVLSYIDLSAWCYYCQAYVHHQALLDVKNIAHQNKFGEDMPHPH", "assay": "Inhibition of human full-length recombinant HDAC6 incubated for 2 hrs by fluorescence based analysis"}, "HEK-293T": {"tested_on": "HEK-293T", "assay": "Antiproliferative activity against HEK293T cells assessed as inhibition of cell growth by MTT assay", "assay_type": "functional, cell-based", "details": "Homo sapiens"}, "MCF7": {"tested_on": "MCF7", "assay": "Antiproliferative activity against human MCF7 cells assessed as inhibition of cell growth by MTT assay", "assay_type": "functional, cell-based"}, "HeLa": {"tested_on": "HeLa", "assay": "Antiproliferative activity against human HeLa cells assessed as inhibition of cell growth by MTT assay", "assay_type": "functional, cell-based"}, "K562": {"tested_on": "K562", "assay": "Antiproliferative activity against human K562 cells assessed as inhibition of cell growth by MTT assay", "assay_type": "functional, cell-based"}, "[2]": {"assay": "Metabolic stability in mouse liver microsomes assessed as half life", "assay_type": "ADME, Microsome"}, "[3]": {"assay": "Stability in mouse plasma assessed as half life", "assay_type": "ADME, cell-free"}}}
{"compound": "CP(=O)([O-])CCCCCCC(=O)Nc1ccccc1.[Li+]", "values": [{"measurement": "IC50", "setting": "Histone deacetylase", "value": 8200, "unit": "µM"}, {"measurement": "IC50", "setting": "Histone deacetylase 8", "value": 390, "unit": "µM"}, {"measurement": "IC50", "setting": "A2780", "value": 110, "unit": "µM"}]}
{"compound": "Cc1onc(-c2ccccc2)c1C(=O)NCCCCCCC(=O)NO", "values": [{"measurement": "IC50", "setting": "Histone deacetylase 1", "value": 3, "unit": "µM"}, {"measurement": "IC50", "setting": "[1]", "value": 0.18, "unit": "µM"}]}
{"compound": "O=C(CCCCCSc1nc[nH]n1)Nc1ccccc1", "values": [{"measurement": "IC50", "setting": "Histone deacetylase", "value": 8.1, "unit": "µM"}, {"measurement": "IC50", "setting": "HEK-293T", "value": 11.1, "unit": "µM"}, {"measurement": "IC50", "setting": "MCF7", "value": 11.1, "unit": "µM"}, {"measurement": "IC50", "setting": "HeLa", "value": 11.1, "unit": "µM"}, {"measurement": "IC50", "setting": "K562", "value": 11.1, "unit": "µM"}]}
{"compound": "Nc1ccccc1NC(=O)CCCCCCC(=O)Nc1ccccc1", "values": [{"measurement": "half-life", "setting": "[2]", "value": 1.9, "unit": "h"}, {"measurement": "half-life", "setting": "[3]", "value": 1.9, "unit": "h"}]}
